Data: PubChem BioAssay (NCI)
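Test compounds were applied to cells in 96-well plates for 48 hours at 5 doses. TGI is the concentration that stops growth completely.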

Key:
Experiment in all cases: NCI tumour cell line growth inhibition, 48 h
HCC-2998 colon = system: HCC-2998 colon
HCT-116 colon = system: HCT-116 colon
KM12 colon = system: KM12 colon
LOX IMVI melanoma = system: LOX IMVI melanoma
MALME-3M melanoma = system: MALME-3M melanoma
NCI-H522 lung = system: NCI-H522 lung
OVCAR-4 ovarian = system: OVCAR-4 ovarian
OVCAR-5 ovarian = system: OVCAR-5 ovarian
OVCAR-8 ovarian = system: OVCAR-8 ovarian
RPMI-8226 leukemia = system: RPMI-8226 leukemia
SF-539 CNS = system: SF-539 CNS
SK-MEL-28 melanoma = system: SK-MEL-28 melanoma
SK-OV-3 ovarian = system: SK-OV-3 ovarian
SNB-78 CNS = system: SNB-78 CNS
TK-10 renal = system: TK-10 renal
U251 CNS = system: U251 CNS

Measured: TGI

CC(=O)NNc1nc(C)c(C(=O)NNC(=O)C(=O)Nc2ccc([N+](=O)[O-])cc2C#N)s1
> 100 µM: all assays above

CC(=O)N(O)Cc1ccccc1
> 100 µM: all assays above
